Biological target: T1, HNE (human neutrophil elastase) (Homo sapiens, UniProt P08246)
T1 construct: purchased Elastin Products (Owensville, Mo., USA) SE563
T1 sequence (P08246 30-267): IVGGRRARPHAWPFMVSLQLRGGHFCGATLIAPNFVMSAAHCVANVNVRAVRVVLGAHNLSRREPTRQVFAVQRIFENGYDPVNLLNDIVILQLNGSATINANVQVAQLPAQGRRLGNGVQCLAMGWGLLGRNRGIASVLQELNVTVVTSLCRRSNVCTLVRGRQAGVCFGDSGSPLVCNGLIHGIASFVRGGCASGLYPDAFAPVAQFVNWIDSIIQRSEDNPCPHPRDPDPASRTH
Assay: Elastase enzyme in-vitro inhibition assay
Format: biochemical
Conditions: HNE 20 nM, 15 min incubation at room temperature, substrate MeOSuc-AAPV-AMC 100 μM, PBS buffer
Experimental: HNE were purchased from Elastin Products (Owensville, Mo., USA) with catalog number SE563. Fixed concentrations of HNE (20 nM) were incubated with various concentrations of inhibitors in PBS buffer in opaque 96-well plates. After 15 min incubation at room temperature, the corresponding fluorescent substrates MeOSuc-AAPV-AMC (Merck Millipore) were added to each well at final concentration 100 μM. Fluorescence was monitored on a Molecular Devices Spectramax fluorescence plate reader at 460 nm with excitation at 380 nm for 30 min. Residual enzyme activity was calculated using the slope of fluorescence increase in the first 10 min. Percentage of enzyme inhibition was plotted using GraphPad Prism 6 software (GraphPad Prism, La Jolla, Calif., USA). The IC50 value and Ki value was calculated using the Morrison tight-binding equation provided by the software.

Structure (SMILES)	IC50 [nM]
Cc1c(-c2ccnn2-c2ccc(C#N)cc2)cc(C(=O)NCCOCCOCCOCCOCCNC(=O)C(=O)NCCOCCOCCOCCOCCNC(=O)c2cc(-c3ccnn3-c3ccc(C#N)cc3)c(C)n(-c3cccc(C(F)(F)F)c3)c2=O)c(=O)n1-c1cccc(C(F)(F)F)c1 [Compound 7]	150 to 1000
Cc1c([S+]([O-])c2ccc(C#N)cc2)cc(C(=O)NCCOCCOCCOCCNC(=O)NCCCCNC(=O)NCCOCCOCCOCCNC(=O)c2cc([S+]([O-])c3ccc(C#N)cc3)c(C)n(-c3cccc(C(F)(F)F)c3)c2=O)c(=O)n1-c1cccc(C(F)(F)F)c1 (centres unmarked) [Compound 17]	150 to 1000
Cc1c([S+]([O-])c2ccc(C#N)cc2)cc(C(=O)NCCOCCOCCNC(=O)C(=O)NCCOCCOCCNC(=O)c2cc([S+]([O-])c3ccc(C#N)cc3)c(C)n(-c3cccc(C(F)(F)F)c3)c2=O)c(=O)n1-c1cccc(C(F)(F)F)c1 (centres unmarked) [Compound 19]	< 150
Cc1c(-c2ccnn2-c2ccc(C#N)cc2)cc(C(=O)NCCOCCOCCOCCOCCNC(=O)NCCOCCOCCOCCOCCNC(=O)c2cc(-c3ccnn3-c3ccc(C#N)cc3)c(C)n(-c3cccc(C(F)(F)F)c3)c2=O)c(=O)n1-c1cccc(C(F)(F)F)c1 [Compound 6]	< 150
Cc1c([S+]([O-])c2ccc(C#N)cc2)cc(C(=O)NCCOCCOCCOCCOCCNC(=O)CCC(=O)NCCOCCOCCOCCOCCNC(=O)c2cc([S+]([O-])c3ccc(C#N)cc3)c(C)n(-c3cccc(C(F)(F)F)c3)c2=O)c(=O)n1-c1cccc(C(F)(F)F)c1 (centres unmarked) [Compound 16]	< 150
Cc1c([S+]([O-])c2ccc(C#N)cc2)cc(C(=O)NCCOCCOCCOCCOCCNC(=O)NCCCCNC(=O)NCCOCCOCCOCCOCCNC(=O)c2cc([S+]([O-])c3ccc(C#N)cc3)c(C)n(-c3cccc(C(F)(F)F)c3)c2=O)c(=O)n1-c1cccc(C(F)(F)F)c1 (centres unmarked) [Compound 15]	< 150
Cc1c([S+]([O-])c2ccc(C#N)cc2)cc(C(=O)NCCOCCOCCOCCNC(=O)CCC(=O)NCCOCCOCCOCCNC(=O)c2cc([S+]([O-])c3ccc(C#N)cc3)c(C)n(-c3cccc(C(F)(F)F)c3)c2=O)c(=O)n1-c1cccc(C(F)(F)F)c1 (centres unmarked) [Compound 18]	< 150
CC(C)C(NC(=O)[C@@H]1CCCN1C(=O)[C@@H](NC(=O)c1ccc(C(=O)NCCOCCOCCNC(=O)NCCCCNC(=O)NCCOCCOCCNC(=O)c2ccc(C(=O)N[C@H](C(=O)N3CCC[C@H]3C(=O)NC(C(=O)C(F)(F)F)C(C)C)C(C)C)cc2)cc1)C(C)C)C(=O)C(F)(F)F (some centres unmarked) [Compound 1]	< 150
Cc1c([S+]([O-])c2ccc(C#N)cc2)cc(C(=O)NCCOCCOCCNC(=O)NCCCCNC(=O)NCCOCCOCCNC(=O)c2cc([S+]([O-])c3ccc(C#N)cc3)c(C)n(-c3cccc(C(F)(F)F)c3)c2=O)c(=O)n1-c1cccc(C(F)(F)F)c1 (centres unmarked) [Compound 20]	150 to 1000
Cc1c(-c2ccnn2C)cc(C(=O)NCCOCCOCCNC(=O)NCCCCNC(=O)NCCOCCOCCNC(=O)c2cc(-c3ccnn3C)c(C)n(-c3cccc(C(F)(F)F)c3)c2=O)c(=O)n1-c1cccc(C(F)(F)F)c1 [Compound 2]	150 to 1000
Cc1c(-c2ccnn2-c2ccc(C#N)cc2)cc(C(=O)NCCOCCOCCOCCOCCNC(=O)CCC(=O)NCCOCCOCCOCCOCCNC(=O)c2cc(-c3ccnn3-c3ccc(C#N)cc3)c(C)n(-c3cccc(C(F)(F)F)c3)c2=O)c(=O)n1-c1cccc(C(F)(F)F)c1 [Compound 5]	< 150

The next lines start with the values.

IC50 [nM]	Structure (SMILES)
< 150	Cc1c(-c2ccnn2-c2ccc(C#N)cc2)cc(C(=O)NCCOCCOCCOCCNC(=O)CCC(=O)NCCOCCOCCOCCNC(=O)c2cc(-c3ccnn3-c3ccc(C#N)cc3)c(C)n(-c3cccc(C(F)(F)F)c3)c2=O)c(=O)n1-c1cccc(C(F)(F)F)c1 [Compound 12]
< 150	Cc1c(-c2ccnn2-c2ccc(C#N)cc2)cc(C(=O)NCCOCCOCCNC(=O)NCCCCNC(=O)NCCOCCOCCNC(=O)c2cc(-c3ccnn3-c3ccc(C#N)cc3)c(C)n(-c3cccc(C(F)(F)F)c3)c2=O)c(=O)n1-c1cccc(C(F)(F)F)c1 [Compound 14]
< 150	Cc1c(-c2ccnn2-c2ccc(C#N)cc2)cc(C(=O)NCCOCCOCCOCCNC(=O)NCCOCCOCCOCCNC(=O)c2cc(-c3ccnn3-c3ccc(C#N)cc3)c(C)n(-c3cccc(C(F)(F)F)c3)c2=O)c(=O)n1-c1cccc(C(F)(F)F)c1 [Compound 10]
< 150	Cc1c(-c2ccnn2-c2ccc(C#N)cc2)cc(C(=O)NCCOCCOCCNC(=O)CCC(=O)NCCOCCOCCNC(=O)c2cc(-c3ccnn3-c3ccc(C#N)cc3)c(C)n(-c3cccc(C(F)(F)F)c3)c2=O)c(=O)n1-c1cccc(C(F)(F)F)c1 [Compound 8]
150 to 1000	Cc1c(-c2ccnn2-c2ccc(C#N)cc2)cc(C(=O)NCCOCCOCCOCCNC(=O)NCCCCNC(=O)NCCOCCOCCOCCNC(=O)c2cc(-c3ccnn3-c3ccc(C#N)cc3)c(C)n(-c3cccc(C(F)(F)F)c3)c2=O)c(=O)n1-c1cccc(C(F)(F)F)c1 [Compound 11]
< 150	Cc1c(-c2ccnn2-c2ccc(C#N)cc2)cc(C(=O)NCCOCCOCCOCCOCCNC(=O)NCCCCNC(=O)NCCOCCOCCOCCOCCNC(=O)c2cc(-c3ccnn3-c3ccc(C#N)cc3)c(C)n(-c3cccc(C(F)(F)F)c3)c2=O)c(=O)n1-c1cccc(C(F)(F)F)c1 [Compound 4]
< 150	Cc1c(-c2ccnn2-c2ccc(C#N)cc2)cc(C(=O)NCCOCCOCCOCCNC(=O)C(=O)NCCOCCOCCOCCNC(=O)c2cc(-c3ccnn3-c3ccc(C#N)cc3)c(C)n(-c3cccc(C(F)(F)F)c3)c2=O)c(=O)n1-c1cccc(C(F)(F)F)c1 [Compound 13]
< 150	Cc1c(-c2ccnn2-c2ccc(C#N)cc2)cc(C(=O)NCCOCCOCCNC(=O)C(=O)NCCOCCOCCNC(=O)c2cc(-c3ccnn3-c3ccc(C#N)cc3)c(C)n(-c3cccc(C(F)(F)F)c3)c2=O)c(=O)n1-c1cccc(C(F)(F)F)c1 [Compound 9]
< 150	Cc1c(-c2ccnn2-c2ccc(C#N)cc2)cc(C(=O)NCCOCCOCCNC(=O)NCCOCCOCCNC(=O)c2cc(-c3ccnn3-c3ccc(C#N)cc3)c(C)n(-c3cccc(C(F)(F)F)c3)c2=O)c(=O)n1-c1cccc(C(F)(F)F)c1 [Compound 3]
